Key:
B-Raf = B-Raf (Homo sapiens, UniProt P15056); experiment: Kinase activity assay, B-Raf; format: biochemical; details: read-out: activity toward kinase B-Raf, IC50
B-Raf V600E = B-Raf V600E (Homo sapiens, UniProt P15056, V600E); experiment: Kinase activity assay, B-Raf V600E; format: biochemical; details: read-out: activity toward kinase B-Raf V600E, IC50
Fms = Fms (Homo sapiens, UniProt P07333); experiment: Kinase activity assay, Fms
Kdr = Kdr (Homo sapiens, UniProt P35968); experiment: Kinase activity assay, Kdr
Kdr, sequence (P35968 20-1356): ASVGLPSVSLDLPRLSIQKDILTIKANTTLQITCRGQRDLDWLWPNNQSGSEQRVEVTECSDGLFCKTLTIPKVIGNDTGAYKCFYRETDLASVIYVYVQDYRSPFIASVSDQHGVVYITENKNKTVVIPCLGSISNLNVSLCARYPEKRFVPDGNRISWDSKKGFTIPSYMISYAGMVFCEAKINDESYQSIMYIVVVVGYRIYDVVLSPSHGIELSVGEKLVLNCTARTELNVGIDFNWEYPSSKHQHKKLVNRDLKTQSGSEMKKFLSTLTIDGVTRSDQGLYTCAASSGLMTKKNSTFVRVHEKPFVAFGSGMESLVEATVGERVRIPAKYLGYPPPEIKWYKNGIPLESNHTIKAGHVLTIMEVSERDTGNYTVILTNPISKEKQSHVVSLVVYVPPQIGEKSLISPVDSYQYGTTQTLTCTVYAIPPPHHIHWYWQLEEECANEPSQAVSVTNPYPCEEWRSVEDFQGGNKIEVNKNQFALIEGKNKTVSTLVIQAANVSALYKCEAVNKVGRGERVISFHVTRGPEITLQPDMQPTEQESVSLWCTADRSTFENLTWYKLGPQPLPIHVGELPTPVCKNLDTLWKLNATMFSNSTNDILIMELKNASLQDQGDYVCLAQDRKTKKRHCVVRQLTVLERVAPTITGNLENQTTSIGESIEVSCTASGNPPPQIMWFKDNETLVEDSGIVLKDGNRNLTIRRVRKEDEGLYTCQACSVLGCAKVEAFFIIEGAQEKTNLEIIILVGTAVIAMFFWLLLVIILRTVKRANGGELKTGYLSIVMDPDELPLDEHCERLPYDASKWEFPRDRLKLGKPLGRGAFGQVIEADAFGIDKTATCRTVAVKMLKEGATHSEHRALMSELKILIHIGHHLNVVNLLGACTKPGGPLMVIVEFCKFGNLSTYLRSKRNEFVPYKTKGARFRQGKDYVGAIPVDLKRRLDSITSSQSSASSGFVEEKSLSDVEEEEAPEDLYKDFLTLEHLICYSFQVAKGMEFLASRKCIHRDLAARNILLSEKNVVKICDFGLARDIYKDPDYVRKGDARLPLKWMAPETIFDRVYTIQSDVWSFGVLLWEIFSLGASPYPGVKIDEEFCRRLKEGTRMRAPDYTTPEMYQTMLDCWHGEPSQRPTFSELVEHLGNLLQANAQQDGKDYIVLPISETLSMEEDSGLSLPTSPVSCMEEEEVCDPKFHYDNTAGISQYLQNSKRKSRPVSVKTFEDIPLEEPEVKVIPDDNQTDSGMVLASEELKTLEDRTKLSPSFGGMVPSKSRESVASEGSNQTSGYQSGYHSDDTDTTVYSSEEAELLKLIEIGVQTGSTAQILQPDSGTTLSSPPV

Kit = Kit (Homo sapiens, UniProt P10721); experiment: Kinase activity assay, Kit
Kit, sequence (P10721 26-976): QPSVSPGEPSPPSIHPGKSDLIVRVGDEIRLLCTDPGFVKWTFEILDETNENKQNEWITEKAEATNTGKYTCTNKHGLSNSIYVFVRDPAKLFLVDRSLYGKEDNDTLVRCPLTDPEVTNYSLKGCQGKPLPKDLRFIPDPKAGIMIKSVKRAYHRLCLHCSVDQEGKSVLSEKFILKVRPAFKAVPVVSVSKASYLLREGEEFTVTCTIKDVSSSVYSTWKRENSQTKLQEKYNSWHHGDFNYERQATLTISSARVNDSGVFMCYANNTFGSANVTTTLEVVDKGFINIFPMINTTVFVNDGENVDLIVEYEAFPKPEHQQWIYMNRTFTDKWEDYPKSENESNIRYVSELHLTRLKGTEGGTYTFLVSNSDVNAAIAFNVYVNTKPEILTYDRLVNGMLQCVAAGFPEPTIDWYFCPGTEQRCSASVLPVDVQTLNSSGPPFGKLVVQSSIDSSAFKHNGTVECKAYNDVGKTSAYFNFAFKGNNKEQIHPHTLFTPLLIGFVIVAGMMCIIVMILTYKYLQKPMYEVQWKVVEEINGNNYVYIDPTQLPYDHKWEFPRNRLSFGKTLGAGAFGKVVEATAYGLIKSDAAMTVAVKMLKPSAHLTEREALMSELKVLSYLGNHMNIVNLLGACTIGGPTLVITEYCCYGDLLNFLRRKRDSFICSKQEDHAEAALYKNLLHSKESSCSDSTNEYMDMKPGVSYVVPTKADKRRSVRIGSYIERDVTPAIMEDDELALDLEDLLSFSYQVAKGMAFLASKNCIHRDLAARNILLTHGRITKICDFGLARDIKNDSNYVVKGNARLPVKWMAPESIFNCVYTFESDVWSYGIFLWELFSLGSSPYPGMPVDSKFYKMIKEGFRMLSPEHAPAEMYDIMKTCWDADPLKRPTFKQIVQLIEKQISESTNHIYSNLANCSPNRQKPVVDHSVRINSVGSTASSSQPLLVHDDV

C-Raf = C-Raf (Homo sapiens, UniProt P04049); experiment: Kinase activity assay, C-Raf
C-Raf, sequence (P04049 whole entry): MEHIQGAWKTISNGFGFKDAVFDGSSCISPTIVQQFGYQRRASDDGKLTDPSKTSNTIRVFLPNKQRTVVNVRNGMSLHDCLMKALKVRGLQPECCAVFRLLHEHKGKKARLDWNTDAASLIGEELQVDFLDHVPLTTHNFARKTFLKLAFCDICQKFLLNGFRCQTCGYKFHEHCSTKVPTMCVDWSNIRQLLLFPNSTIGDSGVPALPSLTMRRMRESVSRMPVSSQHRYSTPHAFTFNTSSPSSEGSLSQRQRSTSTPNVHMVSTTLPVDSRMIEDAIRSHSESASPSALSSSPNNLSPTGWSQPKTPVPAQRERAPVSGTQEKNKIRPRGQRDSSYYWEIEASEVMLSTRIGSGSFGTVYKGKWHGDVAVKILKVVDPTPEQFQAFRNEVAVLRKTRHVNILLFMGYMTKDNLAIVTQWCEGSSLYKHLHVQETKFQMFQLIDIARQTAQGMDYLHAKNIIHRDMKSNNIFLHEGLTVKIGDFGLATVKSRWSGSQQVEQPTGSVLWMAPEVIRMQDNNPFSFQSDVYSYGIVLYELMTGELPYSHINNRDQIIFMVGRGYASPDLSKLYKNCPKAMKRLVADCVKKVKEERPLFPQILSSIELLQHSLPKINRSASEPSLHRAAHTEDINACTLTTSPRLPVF

Src = Src (Homo sapiens, UniProt P12931); experiment: Kinase activity assay, Src

Measured: IC50

B-Raf V600E, sequence (P15056 whole entry V600E): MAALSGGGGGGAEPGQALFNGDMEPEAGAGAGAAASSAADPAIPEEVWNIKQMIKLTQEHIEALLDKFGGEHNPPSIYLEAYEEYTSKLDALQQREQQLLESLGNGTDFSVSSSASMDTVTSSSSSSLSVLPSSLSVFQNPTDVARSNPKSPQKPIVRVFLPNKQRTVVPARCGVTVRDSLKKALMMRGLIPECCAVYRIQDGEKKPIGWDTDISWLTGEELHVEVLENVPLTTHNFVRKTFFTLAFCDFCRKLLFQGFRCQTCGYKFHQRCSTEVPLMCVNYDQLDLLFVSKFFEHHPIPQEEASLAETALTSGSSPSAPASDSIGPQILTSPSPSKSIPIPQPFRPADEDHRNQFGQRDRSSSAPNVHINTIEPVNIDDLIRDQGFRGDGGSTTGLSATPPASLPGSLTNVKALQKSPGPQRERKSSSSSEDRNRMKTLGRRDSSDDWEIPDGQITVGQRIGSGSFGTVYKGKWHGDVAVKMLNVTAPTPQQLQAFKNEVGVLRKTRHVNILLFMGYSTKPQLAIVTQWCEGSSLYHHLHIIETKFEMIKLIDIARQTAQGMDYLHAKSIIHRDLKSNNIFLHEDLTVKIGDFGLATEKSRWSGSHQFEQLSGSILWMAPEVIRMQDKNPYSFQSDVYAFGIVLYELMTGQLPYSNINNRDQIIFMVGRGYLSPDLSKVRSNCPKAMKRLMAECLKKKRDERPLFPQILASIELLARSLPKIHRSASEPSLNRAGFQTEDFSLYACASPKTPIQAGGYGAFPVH
Fms, sequence (P07333 20-972): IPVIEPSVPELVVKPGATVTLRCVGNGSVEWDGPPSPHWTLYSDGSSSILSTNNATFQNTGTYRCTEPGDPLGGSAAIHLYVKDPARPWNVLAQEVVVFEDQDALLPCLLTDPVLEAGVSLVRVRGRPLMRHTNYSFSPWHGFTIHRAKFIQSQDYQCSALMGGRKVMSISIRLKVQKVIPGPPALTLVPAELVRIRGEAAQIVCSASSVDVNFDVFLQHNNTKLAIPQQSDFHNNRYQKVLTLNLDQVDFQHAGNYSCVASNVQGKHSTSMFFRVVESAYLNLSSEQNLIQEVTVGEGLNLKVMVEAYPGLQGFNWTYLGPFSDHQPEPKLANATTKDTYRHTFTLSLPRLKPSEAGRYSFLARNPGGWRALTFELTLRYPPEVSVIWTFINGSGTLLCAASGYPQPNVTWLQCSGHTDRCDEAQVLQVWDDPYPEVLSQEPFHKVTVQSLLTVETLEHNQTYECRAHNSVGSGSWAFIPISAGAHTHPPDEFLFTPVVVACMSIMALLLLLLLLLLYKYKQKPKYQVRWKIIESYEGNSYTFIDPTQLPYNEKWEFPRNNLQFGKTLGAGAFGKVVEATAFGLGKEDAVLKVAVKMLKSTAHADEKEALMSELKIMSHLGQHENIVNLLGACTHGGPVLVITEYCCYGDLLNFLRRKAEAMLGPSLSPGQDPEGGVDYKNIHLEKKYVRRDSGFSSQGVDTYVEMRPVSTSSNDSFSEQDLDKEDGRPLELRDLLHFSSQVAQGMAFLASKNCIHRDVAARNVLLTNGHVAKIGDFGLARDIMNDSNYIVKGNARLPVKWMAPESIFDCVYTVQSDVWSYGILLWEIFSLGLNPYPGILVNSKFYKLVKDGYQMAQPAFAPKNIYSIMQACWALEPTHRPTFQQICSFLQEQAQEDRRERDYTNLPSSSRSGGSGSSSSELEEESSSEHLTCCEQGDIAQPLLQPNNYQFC
B-Raf, sequence (P15056 whole entry): as the sequence (P15056 whole entry V600E) above, with E600V counted along it

O=C(c1cc(NS(=O)(=O)c2cccc(C(F)(F)F)c2)ccc1F)c1c[nH]c2ncc(Cl)cc12 [P-2108, N-[3-(5-Chloro-1H-pyrrolo[2,3-b]pyridine-3-carbonyl)-4-fluoro-phenyl]-3-trifluoromethyl-benzenesulfonamide]
not listed: C-Raf | Src
≤ 10 µM: all other assays above

O=C(c1cccc(NS(=O)(=O)c2cccc(C(F)(F)F)c2)c1)c1c[nH]c2ncc(Cl)cc12 [P-2122, N-[3-(5-Chloro-1H-pyrrolo[2,3-b]pyridine-3-carbonyl)-phenyl]-3-trifluoromethyl-benzenesulfonamide]
≤ 10 µM: Fms | Kdr | Kit

CCCCS(=O)(=O)Nc1cccc(C(=O)c2c[nH]c3ncc(Cl)cc23)c1 [P-2450, Butane-1-sulfonic acid [3-(5-chloro-1H-pyrrolo[2,3-b]pyridine-3-carbonyl)-phenyl]-amide]
≤ 10 µM: B-Raf V600E | Fms | Kdr | Kit

O=C(c1cccc(NS(=O)(=O)c2cccc(F)c2)c1)c1c[nH]c2ncc(Cl)cc12 [P-2127, N-[3-(5-Chloro-1H-pyrrolo[2,3-b]pyridine-3-carbonyl)-phenyl]-3-fluoro-benzenesulfonamide]
not listed: C-Raf | Src
≤ 10 µM: all other assays above

O=C(c1cccc(NS(=O)(=O)c2ccc(F)cc2)c1)c1c[nH]c2ncc(Cl)cc12 [P-2121, N-[3-(5-Chloro-1H-pyrrolo[2,3-b]pyridine-3-carbonyl)-phenyl]-4-fluoro-benzenesulfonamide]
≤ 10 µM: Fms | Kdr | Kit

O=C(c1cc(NS(=O)(=O)C2CC2)ccc1F)c1c[nH]c2ncc(Cl)cc12 [P-2436, Cyclopropanesulfonic acid [3-(5-chloro-1H-pyrrolo[2,3-b]pyridine-3-carbonyl)-4-fluoro-phenyl]-amide]
≤ 10 µM: B-Raf V600E | Fms | Kdr | Kit

O=C(c1cc(NS(=O)(=O)C2CC2)ccc1F)c1c[nH]c2ncccc12 [P-2439, Cyclopropanesulfonic acid [4-fluoro-3-(1H-pyrrolo[2,3-b]pyridine-3-carbonyl)-phenyl]-amide]
≤ 10 µM: Fms | Kdr

O=C(c1c(F)ccc(NS(=O)(=O)C2CC2)c1F)c1c[nH]c2ncc(Br)cc12 [P-2348, Cyclopropanesulfonic acid [3-(5-bromo-1H-pyrrolo[2,3-b]pyridine-3-carbonyl)-2,4-difluoro-phenyl]-amide]
≤ 10 µM: B-Raf V600E | Fms | Kdr | Kit

O=C(c1cccc(NS(=O)(=O)c2cccc(Cl)c2)c1)c1c[nH]c2ncc(Cl)cc12 [P-2125, 3-Chloro-N-[3-(5-chloro-1H-pyrrolo[2,3-b]pyridine-3-carbonyl)-phenyl]-benzenesulfonamide]
≤ 10 µM: Fms | Kdr | Kit

CCCS(=O)(=O)Nc1ccc(F)c(C(=O)c2c[nH]c3ncc(C#CCN(CC)CC)cc23)c1F [P-2241, Propane-1-sulfonic acid {3-[5-(3-diethylamino-prop-1-ynyl)-1H-pyrrolo[2,3-b]pyridine-3-carbonyl]-2,4-difluoro-phenyl}-amide]
≤ 10 µM: Fms | Kdr | Kit

O=C(c1cccc(NS(=O)(=O)c2ccc(OC(F)(F)F)cc2)c1)c1c[nH]c2ncc(Cl)cc12 [P-2123, N-[3-(5-Chloro-1H-pyrrolo[2,3-b]pyridine-3-carbonyl)-phenyl]-4-trifluoromethoxy-benzenesulfonamide]
≤ 10 µM: B-Raf | Fms | Kit

O=C(c1cc(NS(=O)(=O)c2ccc(F)cc2)ccc1F)c1c[nH]c2ncc(Cl)cc12 [P-2107, N-[3-(5-Chloro-1H-pyrrolo[2,3-b]pyridine-3-carbonyl)-4-fluoro-phenyl]-4-fluoro-benzenesulfonamide]
≤ 10 µM: Fms | Kdr | Kit

O=C(c1cc(NS(=O)(=O)c2ccc(C(F)(F)F)cc2)ccc1F)c1c[nH]c2ncc(Cl)cc12 [P-2112, N-[3-(5-Chloro-1H-pyrrolo[2,3-b]pyridine-3-carbonyl)-4-fluoro-phenyl]-4-trifluoromethyl-benzenesulfonamide]
≤ 10 µM: B-Raf | Fms | Kit

O=C(c1cccc(NS(=O)(=O)C2CC2)c1)c1c[nH]c2ncc(Cl)cc12 [P-2451, Cyclopropanesulfonic acid [3-(5-chloro-1H-pyrrolo[2,3-b]pyridine-3-carbonyl)-phenyl]-amide]
≤ 10 µM: Fms | Kdr | Kit

O=C(c1cc(NS(=O)(=O)c2ccc(Cl)cc2)ccc1F)c1c[nH]c2ncc(Cl)cc12 [P-2106, 4-Chloro-N-[3-(5-chloro-1H-pyrrolo[2,3-b]pyridine-3-carbonyl)-4-fluoro-phenyl]-benzenesulfonamide]
≤ 10 µM: B-Raf | Fms | Kdr | Kit

O=C(c1cccc(NS(=O)(=O)c2ccc(Cl)cc2)c1)c1c[nH]c2ncc(Cl)cc12 [P-2128, 4-Chloro-N-[3-(5-chloro-1H-pyrrolo[2,3-b]pyridine-3-carbonyl)-phenyl]-benzenesulfonamide]
≤ 10 µM: B-Raf | Fms | Kdr | Kit

O=C(c1cccc(NS(=O)(=O)N2CCCC2)c1F)c1c[nH]c2ncc(-c3ccc(Cl)cc3)cc12 [P-2425, Pyrrolidine-1-sulfonic acid {3-[5-(4-chloro-phenyl)-1H-pyrrolo[2,3-b]pyridine-3-carbonyl]-2-fluoro-phenyl}-amide]
not listed: Kit | Src
≤ 10 µM: all other assays above

O=C(c1cccc(NS(=O)(=O)c2cccc(OC(F)(F)F)c2)c1)c1c[nH]c2ncc(Cl)cc12 [P-2124, N-[3-(5-Chloro-1H-pyrrolo[2,3-b]pyridine-3-carbonyl)-phenyl]-3-trifluoromethoxy-benzenesulfonamide]
≤ 10 µM: Fms | Kdr | Kit

CCCS(=O)(=O)Nc1ccc(F)c(C(=O)c2c[nH]c3ncc(-c4ncc(C)n4C)cc23)c1F [P-2152, Propane-1-sulfonic acid {3-[5-(1,5-dimethyl-1H-imidazol-2-yl)-1H-pyrrolo[2,3-b]pyridine-3-carbonyl]-2,4-difluoro-phenyl}-amide]
not listed: C-Raf | Src
≤ 10 µM: all other assays above

CCCCS(=O)(=O)Nc1ccc(F)c(C(=O)c2c[nH]c3ncccc23)c1 [P-2438, Butane-1-sulfonic acid [4-fluoro-3-(1H-pyrrolo[2,3-b]pyridine-3-carbonyl)-phenyl]-amide]
≤ 10 µM: Fms | Kdr | Kit

CCCS(=O)(=O)Nc1ccc(F)c(C(=O)c2c[nH]c3ncc(-c4ccc(S(C)(=O)=O)cc4)cc23)c1F [P-2183, Propane-1-sulfonic acid {2,4-difluoro-3-[5-(4-methanesulfonyl-phenyl)-1H-pyrrolo[2,3-b]pyridine-3-carbonyl]-phenyl}-amide]
not listed: C-Raf | Src
≤ 10 µM: all other assays above

CCCCS(=O)(=O)Nc1ccc(F)c(C(=O)c2c[nH]c3ncc(Cl)cc23)c1 [P-2435, Butane-1-sulfonic acid [3-(5-chloro-1H-pyrrolo[2,3-b]pyridine-3-carbonyl)-4-fluoro-phenyl]-amide]
≤ 10 µM: B-Raf V600E | Fms | Kdr | Kit

COc1ccnc2[nH]cc(C(=O)c3c(F)ccc(NS(=O)(=O)c4ccc(F)cc4F)c3F)c12 [P-2032, N-[2,4-Difluoro-3-(4-methoxy-1H-pyrrolo[2,3-b]pyridine-3-carbonyl)-phenyl]-2,4-difluoro-benzenesulfonamide]
not listed: Fms
≤ 10 µM: all other assays above

CN(C)S(=O)(=O)Nc1cccc(C(=O)c2c[nH]c3ncc(-c4ccc(Cl)cc4)cc23)c1F [P-2423, N,N-dimethylamino-sulfonic acid {3-[5-(4-chloro-phenyl)-1H-pyrrolo[2,3-b]pyridine-3-carbonyl]-2-fluoro-phenyl}-amide]
≤ 10 µM: B-Raf V600E | Fms | Kdr

Source: US20120122860A1, “SOLID FORMS OF SULFONAMIDES AND AMINO ACIDS” (Plexxikon, Inc., priority 2009, published 2012)
